Experimental data as given in US20250206751A1, “HETEROCYCLIC COMPOUND FOR INDUCING DEGRADATION OF G12D MUTANT KRAS PROTEIN” (Astellas Pharma Inc., priority 2022, published 2025).

Legend:
KRAS G12D protein = biological target: T1, KRAS G12D protein (Homo sapiens, UniProt P01116, G12D); assay: KRAS degradation activity by Cell ELISA in AsPC-1 (Test Example 1); type: cell-based; conditions: AsPC-1 cells, cultured overnight with compound, corrected with β-actin, read-out: DC50 (50% degradation concentration of the amounts of KRAS)
T1 construct: host or cells: AsPC-1
Protocol: Test Example 1: Evaluation of KRAS Degradation Activity on Human G12D Mutant KRAS-Positive Pancreatic Cancer Line AsPC-1 (CRL-1682; ATCC)
The KRAS degradation activity of test compounds was evaluated by measuring the expression levels of KRAS G12D protein by Cell ELISA.
AsPC-1 cells were seeded at 20 μL per well on 384-well plates (from Greiner bio-one) to give 2.0×10^4 cells per well. As for the cell culture conditions, RPMI 1640 (from Sigma-Aldrich) medium containing 10% fetal bovine serum (from Cytiva) was used in the presence of 5% CO2 at 37° C.
The next day, the test compounds (10 points having final concentrations in the range of 10 μM to 0.3 nM) and DMSO (from FUJIFILM Wako Pure Chemical Corporation), which was the solvent for the test compounds, as a negative control were diluted 500-fold with a fresh medium and were added at 20 μL per well. The cells were cultured overnight.
The next day, the culture supernatant was removed, and 4% paraformaldehyde phosphate buffer (from FUJIFILM Wako Pure Chemical Corporation) was added at 20 μL per well. The plates were allowed to stand for 30 minutes at room temperature to thus immobilize the cells. Then, the supernatant was removed, and 0.1% Triton X-100 (from Amersham Biosciences)-containing Phosphate buffered saline (PBS; from FUJIFILM Wako Pure Chemical Corporation) was added at 20 μL per well. After allowing to stand for 10 minutes at room temperature, the supernatant was removed. PBS was added at 25 μL per well, and the supernatant was removed to thus wash each well. The washing was performed twice in total. Next, the supernatant was removed, and 0.5% sodium dodecyl sulfate (SDS; from Invitrogen)-containing PBS was added at 20 μL per well. After allowing to stand at room temperature for 10 minutes, the supernatant was removed by a centrifugal operation (using a centrifugal dehydrator machine, the supernatant was removed by the same method hereinafter). PBS was added at 25 μL per well, and the supernatant was removed to thus wash each well. The washing was performed twice in total. The supernatant was removed, and blocking solution (Intercept Blocking Buffer; from Li-COR Biosciences) was added at 20 μL per well. After allowing to stand for 30 minutes at room temperature, the supernatant was removed, and a solution obtained by diluting anti-β-actin antibody (Anti-beta Actin antibody [mAbcam 8226]-Loading Control; from abcam) 1,000-fold with blocking solution and a solution obtained by diluting anti-Ras (G12D Mutant Specific) antibody (Ras (G12D Mutant Specific) (D8H7) Rabbit mAb #14429; from Cell Signaling Technology) and anti-β-actin antibody (from abcam) 1,000-fold with blocking solution were respectively added to positive control wells and the other wells at 20 μL per well as a primary antibody. The plate was allowed to stand overnight at 4° C.
The next day, the supernatant was removed. PBS was added at 25 μL per well, and the supernatant was removed to thus wash each well. The washing was performed twice in total. The supernatant was removed, and a solution obtained by diluting Donkey anti-Mouse IgG H&L (IRDye 680RD) (from Li-COR Biosciences) and Goat anti-Rabbit IgG H&L (IRDye 800CW) (from Li-COR Biosciences) 1,000-fold with blocking solution was added at 20 μL per well as a secondary antibody. After allowing to stand for 1 hour at room temperature, the supernatant was removed. PBS was added at 25 μL per well, and the supernatant was removed to thus wash each well. The washing was performed twice in total. After removing the supernatant, the plate was dried with air at room temperature for 2 hours or more, and the 700 nm and 800 nm fluorescent signals were measured with Aerius (from Li-COR Biosciences). […]

[1] = system: phosphorylation of threonine 202 (Thr202) and tyrosine 204 (Tyr204) of ERK; assay: ERK phosphorylation inhibitory effect by Cell ELISA in AsPC-1 (Test Example 2); type: cell-based, human; conditions: Homo sapiens, ASPC1, AsPC-1 cells, cultured overnight with compound; 1 μM trametinib taken as 0%
Protocol: Test Example 2: Evaluation of ERK Phosphorylation Inhibitory Effect on Human G12D Mutant KRAS-Positive Pancreatic Cancer Line AsPC-1
The ERK phosphorylation inhibitory effect of test compounds was evaluated by measuring phosphorylation of threonine 202 (Thr202) and tyrosine 204 (Tyr204) of ERK located downstream of the KRAS signal by Cell ELISA.
AsPC-1 cells were seeded on 384-well plates at 36 μL/well to give 2.0×10^4 cells per well. As for the cell culture conditions, RPMI 1640 medium containing 10% fetal bovine serum was used in the presence of 5% CO2 at 37° C.
The next day, the test compounds (10 points having final concentrations in the range of 10 μM to 0.3 nM), trametinib (MEK inhibitor) of a final concentration of 1 μM as positive control and DMSO, which was the solvent for the test compounds, as negative control were diluted 100-fold with a fresh medium and were added at 4 μL per well. The cells were cultured overnight. After culturing, 30% glyoxal solution (40% glyoxal [from Nacalai Tesque] was diluted with PBS) was quickly added at 30 μL per well, and the plate was allowed to stand for 60 minutes at room temperature to thus immobilize the cells. Then, the plate was centrifuged to remove the supernatant (using a centrifugal dehydrator machine, the supernatant was removed by the same method hereinafter), and 0.1% Triton X-100-containing PBS was added at 20 μL per well. After allowing to stand for 10 minutes at room temperature, the supernatant was removed, and the same operation was further repeated. Next, 0.5% SDS-containing PBS was added at 20 μL per well, and after allowing to stand at room temperature for 30 minutes, the supernatant was removed. Subsequently, blocking solution (Intercept Blocking Buffer) was added at 20 μL per well, and the plate was allowed to stand for 1 hour at room temperature. The supernatant was removed, and an ERK (Thr202/Tyr204) phosphorylation antibody (Phospho-p44/42 MAPK (Erk 1/2) (Thr202/Tyr204) (D13.14.4E) XP Rabbit mAb; from Cell Signaling Technology) diluted 2,500-fold with blocking solution was added at 15 μL per well as a primary antibody. The plates were allowed to stand at 4° C. overnight.
The next day, the supernatant was removed. 0.05% Tween-20 (from Thermo Fisher Scientific)-containing PBS was added at 50 μL per well, and the supernatant was removed to thus wash each well. The washing was performed three times in total. After washing, Goat anti-Rabbit IgG H&L (IRDye 800CW) diluted 1,000-fold with blocking solution was added at 15 μL per well as a secondary antibody, and the plates were allowed to stand for 1 hour at room temperature. The supernatant was removed, and each well was washed three times with 0.05% Tween-20-containing PBS in the same manner as after the primary antibody reaction. After removing the supernatant, the plates were dried with air at room temperature for 3 hours or more, and the 800-nm fluorescent signals were measured with Aerius.
With the signaling value at the time of addition of DMSO taken as 100% and with the signaling value at the time of addition of 1 μM trametinib taken as 0%, the 50% inhibitory concentration values (IC50) were calculated by Sigmoid-Emax nonlinear regression analysis.

[2] = system: human G12D mutant KRAS-positive pancreatic cancer line AsPC-1; assay: Non-anchorage-dependent cell growth inhibition, spheroid 3D cell culture (Test Example 3); type: cell-based; conditions: Homo sapiens, ASPC1, 144 h, AsPC-1 spheroid 3D culture, 6 days, CellTiter Glo 2.0
Protocol: Test Example 3: Evaluation of Non-Anchorage-Dependent Cell Growth Inhibitory Effect on Human G12D Mutant KRAS-Positive Pancreatic Cancer Line AsPC-1
The non-anchorage-dependent cell growth inhibitory effect of test compounds was evaluated by spheroid 3D cell culture.
AsPC-1 cells were seeded on low-cell-adhesive round bottom 384-well plates (PrimeSurface: from Sumitomo Bakelite) at 36 μL/well to give 5×10^2 cells per well. As for the cell culture conditions, RPMI 1640 medium containing 10% fetal bovine serum was used in the presence of 5% CO2 at 37° C.
The next day, the test compounds (10 or 6 points having final concentrations in the range of 10 μM to 0.3 nM) and DMSO, which was the solvent for the test compounds, as a negative control were diluted 100-fold with a fresh medium and were added at 4 μL per well. After culturing in the presence of 5% CO2 at 37° C. for 6 days, CellTiter Glo 2.0 (from Promega) was added at 20 μL per well. After stirring with a plate mixer (from FINEPCR) at room temperature for 1 hour, the luminescent signals were measured with ARVO X3 (from PerkinElmer).
With the signaling value in treatment with DMSO taken as 100% and with the signaling value in the medium alone without cells taken as 0%, the 50% inhibitory concentration values (IC50) were calculated by Sigmoid-Emax nonlinear regression analysis.

T1 sequence (P01116 1-188 isoform P01116-2 G12D): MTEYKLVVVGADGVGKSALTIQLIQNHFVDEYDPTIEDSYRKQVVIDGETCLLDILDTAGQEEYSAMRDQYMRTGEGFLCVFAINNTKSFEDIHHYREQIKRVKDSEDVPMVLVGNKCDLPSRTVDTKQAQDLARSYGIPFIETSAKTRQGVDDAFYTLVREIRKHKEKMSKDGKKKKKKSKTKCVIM

| SMILES | DC50 (KRAS G12D protein) [nM] | IC50 [1] [nM] | IC50 [2] [nM] |
| --- | --- | --- | --- |
| COCCOc1nc(N(C)[C@H]2CCNC2)c2cc(C3CC3)c(-c3c(C)c(F)cc4[nH]ncc34)c(OCc3ccc(-c4cn([C@H](C(=O)N5C[C@H](O)C[C@H]5C(=O)N[C@@H](CO)c5ccc(-c6scnc6C)cc5)C(C)C)nn4)cc3)c2n1 (atropisomer, axis not shown) [Example 24] | 48 | 15 | 26 |
| CCn1nccc1-c1ccc([C@H](CO)NC(=O)[C@@H]2C[C@@H](O)CN2C(=O)[C@H](C(C)C)n2cc(-c3ccc(COc4c(-c5c(C)c(F)cc6[nH]ncc56)c(C5CC5)cc5c(N(C)[C@H]6CCNC6)nc(OC[C@H](C)OC)nc45)cc3)nn2)nc1 (atropisomer, axis not shown) [Example 25] | 75 | 6 | 6 |
| CO[C@@H](C)[C@H](C)Oc1nc(N(C)[C@H]2CCNC2)c2cc(C3CC3)c(-c3c(C)c(F)cc4[nH]ncc34)c(OCc3ccc(-c4cn([C@H](C(=O)N5C[C@H](O)C[C@H]5C(=O)N[C@@H](CO)c5ccc(-c6scnc6C)cc5)C(C)C)nn4)cc3)c2n1 (atropisomer, axis not shown) [Example 20] | 41 | 38 | 21 |
| Cc1ncsc1-c1ccc([C@H](CO)NC(=O)[C@@H]2C[C@@H](O)CN2C(=O)[C@H](C(C)C)n2cc(-c3ccc(COc4c(-c5c(C)c(F)cc6[nH]ncc56)c(C5CC5)cc5c(N[C@H]6CCNC6)cc(OC6CCOCC6)nc45)cc3)nn2)cc1 [Example 4] | 35 | 8 | 7 |
| COCC1(COc2nc(N(C)[C@H]3CCNC3)c3cc(C4CC4)c(-c4c(C)c(F)cc5[nH]ncc45)c(OCc4ccc(-c5cn([C@H](C(=O)N6C[C@H](O)C[C@H]6C(=O)N[C@@H](CO)c6ccc(-c7scnc7C)cc6)C(C)C)nn5)cc4)c3n2)CC1 (atropisomer, axis not shown) [Example 49] | 25 | 32 | 10 |
| CO[C@H](C)COc1nc(N(C)[C@H]2CCNC2)c2cc(C3CC3)c(-c3c(C)c(F)cc4[nH]ncc34)c(OCc3ccc(-c4cn([C@H](C(=O)N5C[C@H](O)C[C@H]5C(=O)N[C@@H](CO)c5ccc(-c6scnc6C)cc5)C(C)C)nn4)cc3)c2n1 (atropisomer, axis not shown) [Example 16] | 26 | 16 | 14 |
| CO[C@@H](C)COc1nc(N(C)[C@H]2CCNC2)c2cc(C3CC3)c(-c3c(C)c(F)cc4[nH]ncc34)c(OCc3ccc(-c4cn([C@H](C(=O)N5C[C@H](O)C[C@H]5C(=O)N[C@@H](CO)c5ccc(F)cc5)C(C)C)nn4)cc3)c2n1 (atropisomer, axis not shown) [Example 12] | 61 | 42 | 41 |

The next compounds have a lower DC50 (KRAS G12D protein) than those just listed; values first:

| DC50 (KRAS G12D protein) [nM] | IC50 [1] [nM] | IC50 [2] [nM] | SMILES |
| --- | --- | --- | --- |
| 9 | 12 | 10 | CO[C@@H](C)COc1nc(O[C@H]2CCNC2)c2cc(C3CC3)c(-c3c(C)c(F)cc4[nH]ncc34)c(OCc3ccc(-c4cn([C@H](C(=O)N5C[C@H](O)C[C@H]5C(=O)N[C@@H](CO)c5ccc(-c6scnc6C)cc5)C(C)C)nn4)cc3)c2n1 (atropisomer, axis not shown) [Example 5] |
| 24 | 5 | 8 | CO[C@@H](C)COc1nc(N[C@H]2CCNC2)c2cc(C3CC3)c(-c3c(C)c(F)cc4[nH]ncc34)c(OCc3ccc(-c4cn([C@H](C(=O)N5C[C@H](O)C[C@H]5C(=O)N[C@@H](CO)c5ccc(-c6scnc6C)cc5)C(C)C)nn4)cc3)c2n1 (atropisomer, axis not shown) [Example 6] |
| 13 | 7 | 9 | Cc1ncsc1-c1ccc([C@H](CO)NC(=O)[C@@H]2C[C@@H](O)CN2C(=O)[C@H](C(C)C)n2cc(-c3ccc(COc4c(-c5c(C)c(F)cc6[nH]ncc56)c(C5CC5)cc5c(O[C@H]6CCNC6)nc(OC6CCOCC6)nc45)cc3)nn2)cc1 (atropisomer, axis not shown) [Example 1] |
| 18 | 20 | 16 | Cc1ncsc1-c1ccc([C@H](CO)NC(=O)[C@@H]2C[C@@H](O)CN2C(=O)[C@H](C(C)C)n2cc(-c3ccc(COc4c(-c5c(C)c(F)cc6[nH]ncc56)c(C5CC5)cc5c(N(C)[C@H]6CCNC6)nc(OC6CCOCC6)nc45)cc3)nn2)cc1 (atropisomer, axis not shown) [Example 8] |
